Like-named read-outs stand apart in the source and are kept apart here.
Experiments:
Plaque [1] = assay: 4-day plaque regrowth in a clinical study in humans, plaque score; type: in vivo
Procedure: (§1) The efficacy of natural product rinse on the reduction of plaque was evaluated in a clinical study in humans. The study was randomized, blind, 3 cells cross-over design to measure the effects of each rinse on 4 day plaque growth from a zero baseline. […] On the other hand, 0.2% chlorhexidine rinse, clinically proven for plaque and gingivitis effect, inhibited 48.0% and 78.0% regrowth of plaque measured by score and area, respectively under similar conditions.

Plaque [2] = assay: 4-day plaque regrowth in a clinical study in humans, plaque area; type: in vivo
Procedure: as §1

Actinomyces viscosus = assay: MIC of natural flavoring agents vs. A. viscosus, standard serial dilution method; type: cell-based; settings: for MIC: Actinomyces viscosus, read-out: Antibacterial Activity vs. A. viscosus MIC; for antibacterial activity against A. viscosus (in words): from MIC data of Table 1
Procedure: The antibacterial activities of a number of natural flavoring agents were evaluated against Actinomyces viscosus, a dental plaque bacterium, by measuring the minimum inhibitory concentration (hereinafter referred to as MIC) of the respective agents in vitro according to the standard serial dilution method delineated in N. Nabi et al., Am. J. Dent. 2: 197:206, 1989 which is incorporated herein by reference. The MIC is defined for the purpose of this invention to mean the concentration of a particular agent at which no bacterial growth was observed. The natural flavoring agents used were obtained from commercial sources available in organic or aqueous solvents. The antibacterial compound, Triclosan, was used as a positive Control. Triclosan is 2,4,4'-trichloro-2'-hydroxydiphenyl ether.

plaque and gingivitis = settings: toothpaste and mouthrinse containing Triclosan, humans; cited from earlier work
[3] = system: bacterial plaque formation; assay: Chemostat Plaque Model in vitro (flow cell system, artificial mouth); type: cell-based; settings: about 0.5 wt % eucalyptol or about 0.01 wt. % sage oil added to rinse (2)
Procedure: The effect of natural product rinse (2) to inhibit bacterial plaque formation in vitro was assessed using the Chemostat Plaque Model according to methods of A. Gaffar et al. described in Am. J. Dent., 3, p. S7-S14, 1990. This in vitro model simulates the actual saliva and tooth surface interactions with respect to the plaque formation in the mouth and assesses the interactions, at biophysical and surface chemical level, of saliva-coated bacteria to saliva-coated surfaces with a surface energy similar to dental enamel.

[4] = 4-day plaque regrowth, rinsed twice daily, fifteen volunteers
[5] = after 4 days, compared with 0.9% saline rinse, p < 0.001
[6] = in vitro, serial dilution, concentration at which no bacterial growth was observed

With `[H]/N=C(\N/C(=N/[H])NCCCCCCNC(=N)NC(=N)Nc1ccc(Cl)cc1)Nc1ccc(Cl)cc1` [Chlorhexidine] the “Plaque Score” value (Plaque [1]; [4]) was 0.128 +/- 0.068, the “Plaque Reduction % (plaque score)” value (Plaque [1]; [5]) was 48.0% and the “Plaque Area” value (Plaque [2]; [4]) was 0.069 +/- 0.055. The “Plaque Reduction % (plaque area)” value (Plaque [2]; [5]) was 78.0%.
For `C=CCc1ccc(O)c(OC)c1` [Eugenol], the MIC (Actinomyces viscosus; [6]) was 25 µg/mL and the “antibacterial activity against A. viscosus (in words)” value (from here on “antibacterial activity”) (Actinomyces viscosus) was “most active”.
For `CC(C)=CCCC(C)=CCCC(C)=CCO` [Farnesol], the MIC (Actinomyces viscosus; [6]) was 25 µg/mL, the “antibacterial activity” value (Actinomyces viscosus) was “excellent antibacterial activity equivalent to thymol or eugenol” and the “antibacterial activity” value (Actinomyces viscosus; listed as farnesol) was “most active”.
In the case of `Cc1ccc(C(C)C)c(O)c1` [Thymol], the MIC (Actinomyces viscosus; [6]) is reported as 25 µg/mL and the “antibacterial activity” value (Actinomyces viscosus) is reported as “most active”.
In the case of `Oc1cc(Cl)ccc1Oc1ccc(Cl)cc1Cl` [Triclosan, 2,4,4'-trichloro-2'-hydroxydiphenyl ether, reference compound], the MIC (Actinomyces viscosus) is listed as 5 µg/mL and the “effect on plaque and gingivitis (in words)” value (plaque and gingivitis) is listed as “reduce plaque and gingivitis”.
For `CC12CCC(CC1)C(C)(C)O2` [eucalyptol], the “antiplaque activity on addition to natural product rinse (2) (in words)” value [3] was “increases the antiplaque activity”.
